Assay: Photochromic properties of photochromic laminate (plastic lens) made by coating method
Assay type: physicochemical
Details: for Color developing density at 23°C: absorbance difference after 240 seconds irradiation at 23°C; for Color developing density at 35°C: absorbance difference after 240 seconds irradiation at 35°C; for Maximum absorption wavelength: after color development, second absorption wavelength (lower line of pair)
Text: First, the photochromic compound obtained in Example 1 above, a photoinitiator, and polymerizable compounds were mixed to obtain a curable composition.
As the polymerizable compounds, a blend of the following radically-polymerizable monomers in combination was used.
• Polyethylene glycol dimethacrylate (average molecular weight: 736): 42 parts by mass • Polyethylene glycol dimethacrylate (average molecular weight: 536): 12 parts by mass • Trimethylolpropane trimethacrylate: 38 parts by mass • γ-Methacryloyloxypropyltrimethoxysilane: 2 parts by mass • Glycidyl methacrylate: 1 part by mass.
Note that in the curable composition, the photochromic compound obtained in Example 1 above was added to be 0.25 mmol taking the total amount of the radically-polymerizable monomers as 100 g. The following were used as additives.
(stabilizer, Irganox 245): 1 part by mass Bis(1,2,2,6,6-pentamethyl-4-piperidyl) sebacate: 3 parts by mass Leveling agent from DuPont Toray Specialty Materials K.K. (L7001): 0.1 parts by mass.
Note that the above-mentioned additives are described with blending ratios taking a total of the radically-polymerizable monomers as 100 parts by mass.
Using this curable composition, a photochromic laminate was obtained by a lamination process described below with the polymerization described below being carried out.
First, a thiourethane plastic lens with a center thickness of 2 mm and a refractive index of 1.60 was prepared as an optical substrate. Note that the thiourethane plastic lens had been alkaline-etched beforehand in a 10% aqueous sodium hydroxide solution at 50°C for 5 minutes, and then thoroughly washed with distilled water.
A spin coater (1H-DX2, manufactured by MIKASA CO., LTD) was used to coat a surface of the above-mentioned plastic lens with a moisture-curable primer (product name: TR-SC-P, manufactured by Tokuyama Corporation) at a rotation speed of 70 rpm for 15 seconds, followed by at 1000 rpm for 10 seconds. Then, about 2 g of the photochromic curable composition obtained as above was spin-coated at a rotation speed of 60 rpm for 40 seconds, followed by at 600 rpm for 10 to 20 seconds so as to achieve a photochromic coating layer with a film thickness of 40 µm.
The lens having the surface coated with the photochromic curable composition (photochromic coating layer) was irradiated with light for 90 seconds in a nitrogen gas atmosphere using a metal halide lamp with an output of 200 mW/cm^2 to cure the coating film. The coating was then further heated at 110°C for 1 hour to produce a photochromic laminate with a photochromic layer.
Photochromic laminates were produced using the photochromic compounds obtained in Examples 2 to 19 in the same manner as in Example 20.
Photochromic laminates were obtained in the same manner as in Example 20 using photochromic compounds represented by the following formulas (A) to (F). [drawing 143] [drawing 144] [drawing 145] [drawing 146] [drawing 147] [drawing 148] [drawing 149] [drawing 150]
The resulting photochromic laminates were evaluated by the methods described below.
Table 3 summarizes the results of Examples 20, 32, and 34, and Comparative Examples 1 to 6, and Table 4 summarizes the results of Examples 21 to 31, 33, and 35 to 38. The relationship between the fading half-life at 23°C and the color development ratio at the higher temperature of the photochromic laminates according to Examples and Comparative Examples are shown in a graph in FIG. 1.
Photochromic laminates were formed using the photochromic compound obtained in Examples 61 to 71 in the same manner as in Example 20.

SMILES | Color developing density at 23°C (first absorption wavelength) | Color developing density at 23°C (second absorption wavelength) | Color developing density at 35°C (first absorption wavelength) | Color developing density at 35°C (second absorption wavelength) | Maximum absorption wavelength
COc1ccc(C2(c3ccc(OC)cc3)C=Cc3c4c(c5ccc(OC)cc5c3O2)-c2ccc(Oc3ccccc3)cc2C4(C)C)cc1 [Formula(E), reference compound] | 0.71 - | 0.96 - | 0.46 - | 0.63 - | 579 nm
COc1ccc2c3c(c4c(c2c1)OC(c1ccc(F)cc1)(c1ccc(N2CCOCC2)cc1)C=C4)C(CCC(F)(F)F)(CCC(F)(F)F)c1cc(N(C)c2ccc(C)cc2)ccc1-3 (stereo not drawn) [Formula (14-3)] | 0.73 - | 1.13 - | 0.51 - | 0.80 - | 628 nm
CCC1(CC)c2cc(N3CCOc4ccccc43)ccc2-c2c1c1c(c3cc(OC)ccc23)OC(c2ccc(OCCOC(=O)CCCCCCCCC(=O)OCCOc3ccc(C4(c5ccc(N6CCOCC6)cc5)C=Cc5c6c(c7ccc(OC)cc7c5O4)-c4ccc(N5CCOc7ccccc75)cc4C6(CC)CC)cc3)cc2)(c2ccc(N3CCOCC3)cc2)C=C1 (stereo not drawn) [Formula (19-3)] | 0.55 - | 0.88 - | 0.34 - | 0.57 - | 629 nm
CCCC1(CCC)c2cc(N3CCCc4ccccc43)ccc2-c2c1c1c(c3cc(OC)ccc23)OC(c2ccc(OC)cc2)(c2ccc(OCCCO)cc2)C=C1 (stereo not drawn) [Formula (17-3)] | 0.85 - | 0.96 - | 0.61 - | 0.70 - | 613 nm
CCCC1(CCC)c2cc(N(C)c3ccccc3)ccc2-c2c1c1c(c3cc(OC)c(-c4ccc(N5CC(C)OC(C)C5)cc4)cc23)OC(c2ccc(N3CCOCC3)cc2)(c2ccc(OC)c(OC)c2)C=C1 (stereo not drawn) [Formula (71-5)] | 1.43 - | 1.36 - | 1.17 - | 1.10 - | 643 nm
CCCCOCCC1(CCOCCCC)c2cc(N(c3ccccc3)c3ccc(C)cc3)ccc2-c2c1c1c(c3cc(OC)c(OC)cc23)OC(c2ccc(OC)cc2)(c2ccc(N3CCOCC3)cc2)C=C1 (stereo not drawn) [Formula (68-2)] | 0.79 - | 0.73 - | 0.51 - | 0.47 - | 636 nm
CCCCCC1(CCCCC)c2cc(N3CCOc4ccccc43)ccc2-c2c1c1c(c3cc(OC)c(-c4ccc(N5CCOc6ccccc65)cc4)cc23)OC(c2ccc(OC)cc2)(c2ccc(OC)cc2)C=C1 [Formula (66-5)] | 1.37 - | 1.03 - | 1.09 - | 0.82 - | 602 nm
CCCCCCOc1ccc(C2(c3ccc(OCCCCCC)cc3)C=Cc3c4c(c5cc(N6CCC(C(F)(F)F)CC6)c(OC)cc5c3O2)-c2ccc(N(c3ccccc3)c3ccccc3)cc2C42CCC3(CCCCC3)CC2)cc1 [Formula (64-3)] | 1.94 - | 0.92 - | 1.38 - | 0.67 - | 611 nm
COc1ccc(C2(c3ccc(N4CCOCC4)cc3)C=Cc3c4c(c5cc(Sc6c(C)cccc6C)c(OC)cc5c3O2)-c2ccc(N3CCOc5cc(F)ccc53)cc2C42CC(C)(C)CC(C)(C)C2)cc1 (stereo not drawn) [Formula (11-4)] | 0.51 - | 0.51 - | 0.31 - | 0.30 - | 620 nm
COCCN(c1ccccc1)c1ccc2c(c1)C(CCOC)(CCOC)c1c3c(c4cc(C)c(N5CCOCC5)cc4c1-2)OC(c1ccc(OC)cc1)(c1ccc(OC)cc1)C=C3 [Formula (10-3)] | 1.24 - | 1.01 - | 0.83 - | 0.68 - | 594 nm
COCCCC1(CCCOC)c2cc(N(c3ccccc3)c3ccccc3)ccc2-c2c1c1c(c3cc(OC)c(N4CCOCC4)cc23)OC(c2ccc(C)cc2)(c2ccc(N(C)c3ccccc3)cc2)C=C1 (stereo not drawn) [Formula (69-2)] | 1.76 - | 1.28 - | 1.32 - | 0.96 - | 640 nm
COc1ccc(C2(c3ccc(OC)cc3)C=Cc3c4c(c5ccc(OC)cc5c3O2)-c2ccc(OC(F)(F)F)cc2C4(C)C)cc1 [Formula(F), reference compound] | 0.62 - | 0.75 - | 0.37 - | 0.45 - | 565 nm
CCCOc1ccc(C2(c3ccc(OCCC)cc3)C=Cc3c4c(c5cc(N(C)c6ccccc6)c(OC)cc5c3O2)-c2ccc(N(C)c3ccccc3)cc2C4(CCC)CCC)cc1 [Formula (61-4)] | 1.37 - | 0.88 - | 1.03 - | 0.64 - | 619 nm
COCCOCCOCCC1(CCOCCOCCOC)c2cc(N(c3ccccc3)c3ccccc3)ccc2-c2c1c1c(c3cc(OC)c(-c4c(OC)cc(OC)cc4OC)cc23)OC(c2ccc(OC)cc2)(c2ccc(OC)cc2)C=C1 [Formula (62-5)] | 1.20 - | 0.90 - | 0.88 - | 0.66 - | 625 nm
CCCCOc1ccc(C2(c3ccc(OC)cc3)C=Cc3c4c(c5cc(-c6ccc(C(F)(F)F)cc6)c(OC)cc5c3O2)-c2ccc(N(C)c3ccccc3)cc2C4(CCC)CCC)cc1 (stereo not drawn) [Formula (63-2)] | 0.71 - | 0.80 - | 0.50 - | 0.57 - | 626 nm
CCCCCCOc1ccc(C2(c3ccc(OCCCCCC)cc3)C=Cc3c4c(c5ccc(OC(F)(F)F)cc5c3O2)-c2ccc(N(C)c3ccc(C(F)(F)F)cc3)cc2C42CCC(CC)(CC)CC2)cc1 [Formula (6-3)] | 0.37 - | 0.77 - | 0.22 - | 0.46 - | 598 nm
CCCCCCC1(CCCCCC)c2cc(N(c3ccccc3)c3ccccc3)ccc2-c2c1c1c(c3cc(OC)c(-c4ccccc4N4CCOCC4)cc23)OC(c2ccc(OC)cc2)(c2ccc(OC)c(F)c2)C=C1 (stereo not drawn) [Formula (70-4)] | 1.44 - | 1.24 - | 1.16 - | 1.01 - | 621 nm
CCCOc1ccc(C2(c3ccc(OCCC)cc3)C=Cc3c4c(c5ccc(-c6ccc(OC)cc6OC)cc5c3O2)-c2ccc(N(C)c3ccc(F)cc3)cc2C4(CC)CC)cc1 [Formula (5-4)] | 0.72 - | 1.18 - | 0.53 - | 0.88 - | 596 nm
